Test system: Anti-β-1,6-Glucan IgG antibodies (affinity purified from IVIG, Baxter)
Assay: ELISA: binding of oligosaccharides to anti-β-1,6-glucan antibodies; note: key: a plus (+) sign indicates that the glucan was active in the assay; a minus (−) sign indicates that the glucan was not active; the '+/−' symbol indicates inconclusive results
Conditions: plate coated with oligosaccharide in PBS; 40 ug/mL anti-Beta 1,6 Glucan IgG; anti-human IgG-HRP, TMB, absorbance at 620 nm
Method in brief: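 Oligosaccharides coated overnight at 4° C in PBS, casein-blocked 1 h at room temperature, then incubated 45 min with 40 ug/mL anti-β-1,6-glucan IgG. Bound IgG detected with anti-human IgG-HRP (1:5000, 45 min, dark) and TMB; absorbance at 620 nm read every 1 min for 60 min.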

- ELISA assay data: glucan active in detection of anti-beta glucan IgG: +
SMILES: O=C(O)c1cc(OCc2cn(CCO[C@@H]3O[C@H](CO[C@@H]4O[C@H](CO[C@@H]5O[C@H](CO[C@@H]6O[C@H](CO)[C@@H](O)[C@H](O)[C@H]6O)[C@@H](O)[C@H](O)[C@H]5O)[C@@H](O)[C@H](O)[C@H]4O)[C@@H](O)[C@H](O)[C@H]3O)nn2)cc(OCc2cn(CCO[C@@H]3O[C@H](CO[C@@H]4O[C@H](CO[C@@H]5O[C@H](CO[C@@H]6O[C@H](CO)[C@@H](O)[C@H](O)[C@H]6O)[C@@H](O)[C@H](O)[C@H]5O)[C@@H](O)[C@H](O)[C@H]4O)[C@@H](O)[C@H](O)[C@H]3O)nn2)c1 [(β-D-glucopyanosy1-1,6)nβ-O(CH2)2-, n=4, 3,5-bis(1[2-[O-β-D-glucopyranosyl-(1→6)]4oxy]ethyl-1H-1,2,3-triazol-4-yl)methoxybenzoic acid]

— patent US10266609B2, “Immunomodulating beta-1,6-D-glucans” (Innate Biotherapeutics, LLC, priority 2014, dated 2019)
